Measurements: patent publication US12077503B2, “Substituted cyclic amides and their use as herbicides” (FMC CORPORATION, priority 2015, dated 2024)

Tests used:
Assay type in all cases: in vivo
[1] = system: ivy-leaved morning glory (Ipomoea hederacea); assay: Test G Pre-Emergence Protocol; conditions: Ipomoea, pre-emergence, 312 h, evaluated after 13 days
Summary of the method: (§1)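 Scores are visual damage ratings from 0 (no damage) to 100 (total plant kill), taken 13 days after treatment. Compound was sprayed one day post-sowing at 15.625, 62.5 or 250 g/ha in 50:50 acetone/water with 0.5% Tween 20.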

[2] = system: corn (Zea mays); assay: Test G Pre-Emergence Protocol; conditions: Zea mays, pre-emergence, 312 h, evaluated after 13 days
Summary of the method: as §1

[3] = system: velvetleaf (Abutilon theophrasti); assay: Test G Pre-Emergence Protocol; conditions: Abutilon theophrasti, pre-emergence, 312 h, evaluated after 13 days
Summary of the method: as §1

[4] = system: barnyardgrass (Echinochloa crus-galli); assay: Test G Pre-Emergence Protocol; conditions: Echinochloa crus-galli, pre-emergence, 312 h, evaluated after 13 days
Summary of the method: as §1

[5] = system: redroot pigweed (Amaranthus retroflexus); assay: Test G Pre-Emergence Protocol; conditions: Amaranthus retroflexus, pre-emergence, 312 h, evaluated after 13 days
Summary of the method: as §1

[6] = system: giant foxtail (Setaria faberi); assay: Test G Pre-Emergence Protocol; conditions: Setaria faberi, pre-emergence, 312 h, evaluated after 13 days
Summary of the method: as §1

[7] = system: ivy-leaved morning glory (Ipomoea hederacea); assay: Test G Post-Emergence Protocol; conditions: Ipomoea, post-emergence, 312 h, read-out: Morningglory, Ivy-leaved damage rating
Summary of the method: (§2)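 Post-emergence herbicidal damage, scored visually 0–100 at 13 days. Application at 15.625, 62.5 or 250 g/ha onto 8-day-old plants grown under glasshouse control.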

[8] = system: corn (Zea mays); assay: Test G Post-Emergence Protocol; conditions: Zea mays, post-emergence, 312 h, read-out: Corn damage rating
Summary of the method: as §2

[9] = system: velvetleaf (Abutilon theophrasti); assay: Test G Post-Emergence Protocol; conditions: Abutilon theophrasti, post-emergence, 312 h, read-out: Velvetleaf damage rating
Summary of the method: as §2

[10] = system: barnyardgrass (Echinochloa crus-galli); assay: Test G Post-Emergence Protocol; conditions: Echinochloa crus-galli, post-emergence, 312 h, read-out: Barnyardgrass damage rating
Summary of the method: as §2

[11] = system: redroot pigweed (Amaranthus retroflexus); assay: Test G Post-Emergence Protocol; conditions: Amaranthus retroflexus, post-emergence, 312 h, read-out: Pigweed, Redroot damage rating
Summary of the method: as §2

[12] = system: giant foxtail (Setaria faberi); assay: Test G Post-Emergence Protocol; conditions: Setaria faberi, post-emergence, 312 h, read-out: Foxtail, Giant damage rating
Summary of the method: as §2

[13] = 15.625 g ai/ha, evaluated after 13 days (100=total damage to plant; 0=no damage to plant)
[14] = 62.5 g ai/ha, evaluated after 13 days, 100=total damage to plant, 0=no damage to plant
[15] = 250 g ai/ha, evaluated after 13 days, 100=total damage to plant, 0=no damage to plant

**Q.** For CN1C[C@H](c2cccc(C(F)(F)F)c2)[C@@H](C(=O)Nc2cnccc2[S+](C)[O-])C1=O (mixture of isomers) [Compound 1752], which pest or weed control at 15.625 g/ha ([1]; 15.625 g ai/ha, read-out: Morningglory, Ivy-leaved damage rating (100=total damage to plant; 0=no damage to plant)) is on record?
**A.** Its pest or weed control at 15.625 g/ha is 0%.

**Q.** What about the pest or weed control at 62.5 g/ha ([1]; 62.5 g ai/ha, 100=total damage to plant, 0=no damage to plant, read-out: Morningglory, Ivy-leaved damage rating) of the same compound?
**A.** The pest or weed control at 62.5 g/ha was 0%.

**Q.** And the pest or weed control at 250 g/ha ([1]; 250 g ai/ha, read-out: Morningglory, Ivy-leaved damage rating (100=total damage to plant; 0=no damage to plant))?
**A.** The pest or weed control at 250 g/ha was 0%.

**Q.** And the plant injury at 15.625 g/ha ([2]; 15.625 g ai/ha, read-out: Corn damage rating (100=total damage to plant; 0=no damage to plant))?
**A.** Its plant injury at 15.625 g/ha is 0%.

**Q.** What about the plant injury at 62.5 g/ha ([2]; 62.5 g ai/ha, 100=total damage to plant, 0=no damage to plant, read-out: Corn damage rating) of the same compound?
**A.** Its plant injury at 62.5 g/ha is 0%.

**Q.** What about the plant injury at 250 g/ha ([2]; 250 g ai/ha, read-out: Corn damage rating (100=total damage to plant; 0=no damage to plant)) of the same compound?
**A.** The plant injury at 250 g/ha was 0%.

**Q.** And the pest or weed control at 15.625 g/ha ([3]; 15.625 g ai/ha, read-out: Velvetleaf damage rating (100=total damage to plant; 0=no damage to plant))?
**A.** The pest or weed control at 15.625 g/ha was 0%.

**Q.** And the pest or weed control at 62.5 g/ha ([3]; 62.5 g ai/ha, 100=total damage to plant, 0=no damage to plant, read-out: Velvetleaf damage rating)?
**A.** Its pest or weed control at 62.5 g/ha is 0%.

**Q.** What about the pest or weed control at 250 g/ha ([3]; 250 g ai/ha, read-out: Velvetleaf damage rating (100=total damage to plant; 0=no damage to plant)) of the same compound?
**A.** Its pest or weed control at 250 g/ha is 0%.

**Q.** And the pest or weed control at 15.625 g/ha ([4]; 15.625 g ai/ha, read-out: Barnyardgrass damage rating (100=total damage to plant; 0=no damage to plant))?
**A.** The pest or weed control at 15.625 g/ha was 0%.

**Q.** What about the pest or weed control at 62.5 g/ha ([4]; 62.5 g ai/ha, 100=total damage to plant, 0=no damage to plant, read-out: Barnyardgrass damage rating) of the same compound?
**A.** Its pest or weed control at 62.5 g/ha is 0%.

**Q.** And the pest or weed control at 250 g/ha ([4]; 250 g ai/ha, read-out: Barnyardgrass damage rating (100=total damage to plant; 0=no damage to plant))?
**A.** The pest or weed control at 250 g/ha was 20%.

**Q.** What about the pest or weed control at 15.625 g/ha ([5]; 15.625 g ai/ha, read-out: Pigweed, Redroot damage rating (100=total damage to plant; 0=no damage to plant)) of the same compound?
**A.** Its pest or weed control at 15.625 g/ha is 0%.

**Q.** What about the pest or weed control at 62.5 g/ha ([5]; 62.5 g ai/ha, 100=total damage to plant, 0=no damage to plant, read-out: Pigweed, Redroot damage rating) of the same compound?
**A.** The pest or weed control at 62.5 g/ha was 0%.

**Q.** And the pest or weed control at 250 g/ha ([5]; 250 g ai/ha, read-out: Pigweed, Redroot damage rating (100=total damage to plant; 0=no damage to plant))?
**A.** The pest or weed control at 250 g/ha was 0%.

**Q.** What about the pest or weed control at 15.625 g/ha ([6]; 15.625 g ai/ha, read-out: Foxtail, Giant damage rating (100=total damage to plant; 0=no damage to plant)) of the same compound?
**A.** The pest or weed control at 15.625 g/ha was 0%.

**Q.** And the pest or weed control at 62.5 g/ha ([6]; 62.5 g ai/ha, 100=total damage to plant, 0=no damage to plant, read-out: Foxtail, Giant damage rating)?
**A.** Its pest or weed control at 62.5 g/ha is 0%.

**Q.** What about the pest or weed control at 250 g/ha ([6]; 250 g ai/ha, read-out: Foxtail, Giant damage rating (100=total damage to plant; 0=no damage to plant)) of the same compound?
**A.** Its pest or weed control at 250 g/ha is 20%.

**Q.** What about the pest or weed control at 15.625 g/ha [7, 13] of the same compound?
**A.** Its pest or weed control at 15.625 g/ha is 0%.

**Q.** And the pest or weed control at 62.5 g/ha [7, 14]?
**A.** The pest or weed control at 62.5 g/ha was 0%.

**Q.** And the pest or weed control at 250 g/ha [7, 15]?
**A.** The pest or weed control at 250 g/ha was 0%.

**Q.** And the plant injury at 15.625 g/ha [8, 13]?
**A.** The plant injury at 15.625 g/ha was 0%.

**Q.** And the plant injury at 62.5 g/ha [8, 14]?
**A.** Its plant injury at 62.5 g/ha is 0%.

**Q.** What about the plant injury at 250 g/ha [8, 15] of the same compound?
**A.** Its plant injury at 250 g/ha is 0%.

**Q.** And the pest or weed control at 15.625 g/ha [9, 13]?
**A.** Its pest or weed control at 15.625 g/ha is 0%.

**Q.** And the pest or weed control at 62.5 g/ha [9, 14]?
**A.** The pest or weed control at 62.5 g/ha was 0%.

**Q.** What about the pest or weed control at 250 g/ha [9, 15] of the same compound?
**A.** The pest or weed control at 250 g/ha was 0%.

**Q.** What about the pest or weed control at 15.625 g/ha [10, 13] of the same compound?
**A.** The pest or weed control at 15.625 g/ha was 0%.

**Q.** And the pest or weed control at 62.5 g/ha [10, 14]?
**A.** The pest or weed control at 62.5 g/ha was 0%.

**Q.** And the pest or weed control at 250 g/ha [10, 15]?
**A.** The pest or weed control at 250 g/ha was 0%.

**Q.** And the pest or weed control at 15.625 g/ha [11, 13]?
**A.** Its pest or weed control at 15.625 g/ha is 0%.

**Q.** What about the pest or weed control at 62.5 g/ha [11, 14] of the same compound?
**A.** Its pest or weed control at 62.5 g/ha is 0%.

**Q.** What about the pest or weed control at 250 g/ha [11, 15] of the same compound?
**A.** The pest or weed control at 250 g/ha was 0%.

**Q.** And the pest or weed control at 15.625 g/ha [12, 13]?
**A.** The pest or weed control at 15.625 g/ha was 0%.

**Q.** And the pest or weed control at 62.5 g/ha [12, 14]?
**A.** Its pest or weed control at 62.5 g/ha is 0%.

**Q.** And the pest or weed control at 250 g/ha [12, 15]?
**A.** Its pest or weed control at 250 g/ha is 0%.
